Experimental data taken from ChEMBL document CHEMBL3351924, “Detailed analysis and follow-up studies of a high-throughput screening for indoleamine 2,3-dioxygenase 1 (IDO1) inhibitors” (Eur J Med Chem, 2014).
Values after ≈ are worked out from the molar mass of the structure shown.

How the values were obtained:
[1] = target: T1, Indoleamine 2,3-dioxygenase 1 (Homo sapiens, UniProt P14902); assay: Inhibition of IDO1 (unknown origin) using L-tryptophan substrate incubated for 60 mins in presence of 0.01% Triton-X by HPLC
T1 sequence (P14902 whole entry): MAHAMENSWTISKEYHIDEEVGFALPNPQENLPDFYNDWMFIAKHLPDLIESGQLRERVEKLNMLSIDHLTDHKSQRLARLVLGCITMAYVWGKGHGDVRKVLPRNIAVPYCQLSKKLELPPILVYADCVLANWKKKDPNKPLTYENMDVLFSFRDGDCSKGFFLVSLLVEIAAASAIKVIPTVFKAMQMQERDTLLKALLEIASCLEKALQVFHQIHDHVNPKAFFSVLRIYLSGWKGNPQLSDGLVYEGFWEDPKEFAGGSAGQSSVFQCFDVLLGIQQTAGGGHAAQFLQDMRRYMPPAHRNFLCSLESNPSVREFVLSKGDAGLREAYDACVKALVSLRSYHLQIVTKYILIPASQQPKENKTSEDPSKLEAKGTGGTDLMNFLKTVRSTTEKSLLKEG

[2] = Solubility of the compound in pH 6.5 phosphate buffer containing 5% DMSO
[3] = target: T1, Indoleamine 2,3-dioxygenase 1; assay: Inhibition of IDO1 (unknown origin) using L-tryptophan substrate incubated for 60 mins by HPLC
[4] = target: Indoleamine 2,3-dioxygenase 1 (Mus musculus, UniProt P28776); assay: Inhibition of mouse IDO1 expressed in mouse P815B cells using L-tryptophan substrate incubated for 18 hrs by HPLC based cellular assay; type: cell-based; conditions: p815b
Indoleamine 2,3-dioxygenase 1 (Mus musculus, UniProt P28776), sequence (P28776 whole entry): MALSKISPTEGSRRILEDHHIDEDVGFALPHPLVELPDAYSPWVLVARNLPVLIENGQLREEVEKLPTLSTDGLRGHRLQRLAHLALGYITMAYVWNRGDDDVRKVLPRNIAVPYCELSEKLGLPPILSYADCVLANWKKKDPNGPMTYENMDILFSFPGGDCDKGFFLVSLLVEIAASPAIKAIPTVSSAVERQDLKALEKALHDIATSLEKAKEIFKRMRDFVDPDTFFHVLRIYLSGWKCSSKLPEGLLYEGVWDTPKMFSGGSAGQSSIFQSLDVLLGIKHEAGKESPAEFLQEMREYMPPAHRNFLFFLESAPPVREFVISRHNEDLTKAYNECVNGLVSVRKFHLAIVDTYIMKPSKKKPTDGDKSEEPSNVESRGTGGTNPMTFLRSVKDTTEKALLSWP

[5] = target: Tryptophan 2,3-dioxygenase (Mus musculus, UniProt P48776); assay: Inhibition of mouse TDO expressed in mouse P815B cells using L-tryptophan substrate incubated for 24 hrs by HPLC based cellular assay; type: cell-based; conditions: p815b
Tryptophan 2,3-dioxygenase, sequence (P48776 whole entry): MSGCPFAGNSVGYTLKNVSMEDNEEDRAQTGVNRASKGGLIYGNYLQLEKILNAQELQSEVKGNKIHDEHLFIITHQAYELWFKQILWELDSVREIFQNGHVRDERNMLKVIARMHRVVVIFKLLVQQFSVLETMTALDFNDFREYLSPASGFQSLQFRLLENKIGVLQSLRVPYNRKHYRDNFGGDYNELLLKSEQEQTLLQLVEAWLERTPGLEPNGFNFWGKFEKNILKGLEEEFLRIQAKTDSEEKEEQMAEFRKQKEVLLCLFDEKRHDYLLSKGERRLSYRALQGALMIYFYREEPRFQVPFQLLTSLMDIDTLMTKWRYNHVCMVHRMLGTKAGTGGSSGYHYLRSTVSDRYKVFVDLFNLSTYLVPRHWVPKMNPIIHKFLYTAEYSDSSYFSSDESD

[6] = Cytotoxicity against mouse P815B cells after 24 hrs by MTS/PMS assay
[7] = target: T1, Indoleamine 2,3-dioxygenase 1; assay: Inhibition of IDO1 (unknown origin) using L-tryptophan substrate incubated for 60 mins in presence of 5 mM GSH by HPLC
[8] = phosphate buffer containing 5% DMSO

Q: Which results are given for `Clc1ccc(COCCn2ccnc2)c(Cl)c1`?
A: IC50 [1]: Not Active; solubility [2, 8]: > 1000 µM

Q: With `Clc1ccc(CCn2ccnc2)c(Cl)c1` as the compound, how does the IC50 ([1]; read-out: IC50) read?
A: 820 µM

Q: And the solubility [2, 8]?
A: > 1000 µM

Q: Which results are given for `COC(Cn1ccnc1)c1ccc(Cl)cc1Cl` (configuration not stated)?
A: IC50 ([1]; read-out: IC50): 140 µM; solubility [2, 8]: > 1000 µM

Q: Which IC50 ([1]; read-out: IC50) does the source give for `Clc1ccc(C(Cn2ccnc2)OCc2cccnc2)c(Cl)c1` (configuration not stated) here?
A: 84 µM

Q: And the solubility [2, 8]?
A: > 1000 µM

Q: Which IC50 ([1]; read-out: IC50) does the source give for `OC(Cn1ccnc1)c1ccccc1Cl` (configuration not stated) here?
A: 200 µM

Q: What about the solubility [2, 8] of the same compound?
A: > 1000 µM

Q: For `OC(Cn1ccnc1)c1ccc(Cl)c(Cl)c1` (configuration not stated), which IC50 ([1]; read-out: IC50) is on record?
A: 830 µM

Q: And the solubility [2, 8]?
A: > 1000 µM

Q: Which IC50 [1] does the source give for `OC(Cn1ccnc1)c1cccc(Cl)c1` (configuration not stated) here?
A: Not Active

Q: And the solubility [2, 8]?
A: > 1000 µM

Q: With `OC(Cn1ccnc1)c1c(Cl)cccc1Cl` (configuration not stated) as the compound, how does the IC50 [1] read?
A: Not Active

Q: What about the solubility [2, 8] of the same compound?
A: > 1000 µM

Q: What does the source list for `Oc1ccccc1C(O)Cn1ccnc1` (configuration not stated)?
A: IC50 [1]: Not Active; solubility [2, 8]: > 1000 µM

Q: Which IC50 [1] does the source give for `OC(Cc1c[nH]nn1)c1ccc(Cl)cc1Cl` (configuration not stated) here?
A: Not Active

Q: And the solubility [2, 8]?
A: > 1000 µM

Q: For `Clc1ccc(Cn2ccnc2)c(Cl)c1`, which IC50 ([1]; read-out: IC50) is on record?
A: 310 µM

Q: And the solubility [2, 8]?
A: > 1000 µM

Q: With `Clc1ccc(-n2ccnc2)c(Cl)c1` as the compound, how does the IC50 [1] read?
A: Not Active

Q: What about the solubility [2, 8] of the same compound?
A: > 1000 µM

Q: For `O=C(Cn1ccnc1)c1ccc(Cl)cc1Cl`, which IC50 [1] is on record?
A: Not Active

Q: What about the solubility [2, 8] of the same compound?
A: > 1000 µM

Q: What does the source list for `c1ccc(CCn2ccnc2)cc1`?
A: IC50 [1]: Not Active; solubility [2, 8]: > 1000 µM

Q: Which IC50 ([3]; read-out: IC50) does the source give for `O=c1ccsn1-c1cccc(Cl)c1F` here?
A: 11 µM

Q: And the IC50 ([1]; read-out: IC50)?
A: 4.8 µM

Q: What about the IC50 [4] of the same compound?
A: Not Active

Q: And the IC50 [5]?
A: Not Active

Q: What about the CC50 at 24 h ([6]; P815B cells) of the same compound?
A: 10 µM

Q: And the IC50 [7]?
A: 200 µM

Q: And the solubility [2, 8]?
A: 1000 µM (≈ 230 µg/mL)

Q: What does the source list for `CCN(CC)C(=S)SSC(=S)N(CC)CC`?
A: IC50 [3]: Not Active; solubility [2, 8]: 100 µM (≈ 29.7 µg/mL)

Q: With `c1ccc(Cn2ccnc2)cc1` [BENZYLIMIDAZOLE] as the compound, how does the IC50 [1] read?
A: Not Active

Q: What about the solubility [2, 8] of the same compound?
A: > 1000 µM

Q: With `c1ccc(-c2ccc(C(c3ccccc3)n3ccnc3)cc2)cc1` (configuration not stated) [BIFONAZOLE] as the compound, how does the IC50 ([3]; read-out: IC50) read?
A: 23 µM

Q: And the IC50 [4]?
A: Not Active

Q: What about the IC50 [5] of the same compound?
A: Not Active

Q: What about the CC50 at 24 h ([6]; P815B cells) of the same compound?
A: 10 µM

Q: And the solubility [2, 8]?
A: 25 µM (≈ 7.76 µg/mL)

Q: What does the source list for `Clc1ccc(CCC(Cn2ccnc2)Sc2c(Cl)cccc2Cl)cc1` (configuration not stated) [BUTOCONAZOLE]?
A: IC50 [3]: Not Active; solubility [2, 8]: 10 µM (≈ 4.12 µg/mL)

Q: For `Cc1cc(C2CCCCC2)n(O)c(=O)c1` [CICLOPIROX], which IC50 [3] is on record?
A: Not Active

Q: What about the solubility ([2]; buffer) of the same compound?
A: 1000 µM (≈ 207 µg/mL)

Q: For `Clc1ccc(COC(Cn2ccnc2)c2ccc(Cl)cc2Cl)cc1` (configuration not stated) [ECONAZOLE], which IC50 [3] is on record?
A: 8.1 µM

Q: And the IC50 [4]?
A: Not Active

Q: And the IC50 [5]?
A: Not Active

Q: What about the CC50 at 24 h ([6]; P815B cells) of the same compound?
A: 10 µM

Q: And the solubility [2, 8]?
A: 10 µM (≈ 3.82 µg/mL)

Q: Which results are given for `C=CCOC(Cn1ccnc1)c1ccc(Cl)cc1Cl` (configuration not stated) [ENILCONAZOLE]?
A: IC50 ([3]; read-out: IC50): 23 µM; IC50 [4]: Not Active; IC50 [5]: Not Active; CC50 at 24 h ([6]; P815B cells): > 25 µM; solubility [2, 8]: 10 µM (≈ 2.97 µg/mL)

Q: Which IC50 ([3]; read-out: IC50) does the source give for `Clc1ccc(C(Cn2ccnc2)OCc2c(Cl)cccc2Cl)c(Cl)c1` (configuration not stated) [ISOCONAZOLE] here?
A: 23 µM

Q: And the IC50 [4]?
A: Not Active

Q: What about the IC50 [5] of the same compound?
A: Not Active

Q: And the CC50 at 24 h ([6]; P815B cells)?
A: 10 µM

Q: What about the solubility [2, 8] of the same compound?
A: 50 µM (≈ 20.8 µg/mL)

Q: With `CC(=O)N1CCN(c2ccc(OCC3COC(Cn4ccnc4)(c4ccc(Cl)cc4Cl)O3)cc2)CC1` (configuration not stated) [KETOCONAZOLE] as the compound, how does the IC50 ([3]; read-out: IC50) read?
A: 32 µM

Q: What about the IC50 ([1]; read-out: IC50) of the same compound?
A: 25 µM

Q: What about the IC50 [4] of the same compound?
A: Not Active

Q: And the IC50 [5]?
A: Not Active

Q: What about the CC50 at 24 h ([6]; P815B cells) of the same compound?
A: 25 µM

Q: And the solubility [2, 8]?
A: 100 µM (≈ 53.1 µg/mL)

Q: Which solubility [2, 8] does the source give for `CCOC(=O)C1=C(C)NC(C)=C(C(=O)OCC)C1c1ccccc1/C=C/C(=O)OC(C)(C)C` [LACIDIPINE] here?
A: 1 µM (≈ 0.456 µg/mL)

Q: With `COc1cccc(N(C)C(=S)Oc2ccc3c(c2)CCCC3)n1` [LIRANAFTATE] as the compound, how does the solubility [2, 8] read?
A: 12.5 µM (≈ 4.11 µg/mL)

Q: Which IC50 [3] does the source give for `Sc1ncnc2nc[nH]c12` [MERCAPTOPURINE ANHYDROUS] here?
A: Not Active

Q: And the solubility [2, 8]?
A: 1000 µM (≈ 152 µg/mL)

Q: Which IC50 ([3]; read-out: IC50) does the source give for `Clc1ccc(COC(Cn2ccnc2)c2ccc(Cl)cc2Cl)c(Cl)c1` (configuration not stated) [MICONAZOLE] here?
A: 6.7 µM

Q: What about the IC50 ([1]; read-out: IC50) of the same compound?
A: 3.8 µM

Q: What about the IC50 [4] of the same compound?
A: Not Active

Q: And the IC50 [5]?
A: Not Active

Q: And the CC50 at 24 h ([6]; p815b)?
A: 10 µM

Q: And the solubility [2, 8]?
A: 10 µM (≈ 4.16 µg/mL)

Q: For `COC(=O)C1=C(C)NC(C)=C(C(=O)OC)C1c1ccccc1[N+](=O)[O-]` [NIFEDIPINE], which IC50 [3] is on record?
A: Not Active

Q: What does the source list for `COC(=O)C1=C(C)NC(C)=C(C(=O)OCC(C)C)C1c1ccccc1[N+](=O)[O-]` (configuration not stated) [NISOLDIPINE]?
A: IC50 [3]: Not Active; solubility [2, 8]: 50 µM (≈ 19.4 µg/mL)

Q: For `Clc1ccc(CO/N=C(\Cn2ccnc2)c2ccc(Cl)cc2Cl)c(Cl)c1` [OXICONAZOLE], which IC50 ([3]; read-out: IC50) is on record?
A: 28 µM

Q: What about the IC50 [4] of the same compound?
A: Not Active

Q: What about the IC50 [5] of the same compound?
A: Not Active

Q: And the CC50 at 24 h ([6]; p815b)?
A: 10 µM

Q: And the solubility [2, 8]?
A: 20 µM (≈ 8.58 µg/mL)

Q: Which IC50 ([3]; read-out: IC50) does the source give for `NNCCc1ccccc1` [PHENELZINE] here?
A: 14 µM

Q: What about the IC50 [4] of the same compound?
A: Not Active

Q: What about the IC50 [5] of the same compound?
A: Not Active

Q: And the CC50 at 24 h ([6]; p815b)?
A: > 25 µM

Q: And the solubility ([2]; buffer)?
A: 1000 µM (≈ 136 µg/mL)

Q: With `CC(C)(N)Cc1ccccc1` [PHENTERMINE] as the compound, how does the solubility [2, 8] read?
A: 1000 µM (≈ 149 µg/mL)

Q: What does the source list for `COCCCOc1ccnc(C[S+]([O-])c2nc3ccccc3[nH]2)c1C` (configuration not stated) [RABEPRAZOLE]?
A: IC50 [3]: Not Active; solubility [2, 8]: 1000 µM (≈ 359 µg/mL)

Q: Which solubility [2, 8] does the source give for `O=C(c1ccc(OCCN2CCCCC2)cc1)c1c(-c2ccc(O)cc2)sc2cc(O)ccc12` [RALOXIFENE] here?
A: 50 µM (≈ 23.7 µg/mL)

Q: With `Clc1ccc(C(Cn2ccnc2)OCc2csc3c(Cl)cccc23)c(Cl)c1` (configuration not stated) [SERTACONAZOLE] as the compound, how does the IC50 ([3]; read-out: IC50) read?
A: 8.4 µM

Q: What about the IC50 [4] of the same compound?
A: Not Active

Q: What about the IC50 [5] of the same compound?
A: Not Active

Q: What about the CC50 at 24 h ([6]; P815B cells) of the same compound?
A: 10 µM

Q: What about the solubility [2, 8] of the same compound?
A: 10 µM (≈ 4.38 µg/mL)

Q: Which IC50 [4] does the source give for `Clc1ccc(CSC(Cn2ccnc2)c2ccc(Cl)cc2Cl)cc1` (configuration not stated) [SULCONAZOLE] here?
A: Not Active

Q: And the IC50 [5]?
A: Not Active

Q: What about the CC50 at 24 h ([6]; p815b) of the same compound?
A: 10 µM

Q: What about the solubility [2, 8] of the same compound?
A: 10 µM (≈ 3.98 µg/mL)

Q: Which IC50 [3] does the source give for `Clc1ccc(C(Cn2ccnc2)OCc2ccsc2Cl)c(Cl)c1` (configuration not stated) [TIOCONAZOLE] here?
A: Not Active

Q: And the solubility ([2]; buffer)?
A: 10 µM (≈ 3.88 µg/mL)
